{"source": "patent US10376487B2", "about": "“Method of treatment” (Vanda Pharmaceuticals, Inc., priority 2013, dated 2019)", "assay": "Clinical food-effect study: pharmacokinetics of a 100 mg tasimelteon capsule with or without a high-fat/high-calorie meal", "assay_type": "in vivo, human", "conditions": "for Cmax / Tmax: human, in vivo, po", "protocol": "A clinical study was undertaken to investigate the effects of food on administration of tasimelteon. Specifically, the primary objective of the study was to investigate the influence of food (high-calorie/high-fat) on the pharmacokinetics of 100 mg of tasimelteon in healthy subjects. This was a single-center, open-label, crossover design which lasted up to 5 weeks. 26 Healthy male and female subjects (18-50 years old) were enrolled in the study. There was a 2-period, randomized, 2-sequence crossover design where each subject received 100 mg tasimelteon either with or without food. Subjects were randomly assigned to receive a 100 mg tasimelteon capsule under fasted conditions or a 100 mg tasimelteon capsule under fed conditions (i.e., 30 minutes after beginning to ingest a high-fat meal). There was a 7-day washout between treatment groups. FIG. 1 depicts an example of the overall study design. In FIG. 1, tasimelteon is referred to as VEC-162.\nFor purposes of the study depicted in FIG. 1, administration under fasted conditions was administration with 240 mL of water at approximately 6:00 AM, after at least a 10-hour fast. Subjects were not allowed to eat any food for at least 4 hours postdose. Subjects were allowed to drink water as desired except 1 hour before and 2 hours after drug administration.\nAdministration under fed conditions was administration with 240 mL of water at approximately 6:00 AM, after a high-fat/high=calorie breakfast, which included one cup of milk. Subjects began the recommended meal 30 minutes prior to drug administration. Subjects finished eating the meal in 30 minutes or less and the drug was administered approximately 30 minutes after the start of the meal. Subjects were not allowed to eat any food for at least 4 hours postdose. Subjects were allowed to drink water as desired except 1 hour before and 2 hours after drug administration.\n25 Subjects completed both periods of the study.", "key": {"[1]": {"conditions": "fed vs fasted, 100 mg oral, 90% CI within 80% to 125%"}, "[2]": {"conditions": "with a high-fat/high calorie meal vs fasted"}}, "note": "Read-outs that look alike come from different tables or passages of the source."}
{"smiles": "CCC(=O)NC[C@@H]1C[C@H]1c1cccc2c1CCO2", "note": "[tasimelteon]", "values": [{"measurement": "Cmax lower than when given in a fasted state", "setting": "administered with a high-fat meal, illustrative prescribing information language", "result": 44, "unit": "%"}, {"measurement": "Cmax", "setting": "both sexes, 100 mg, healthy subjects, 100 mg oral capsule, fasted conditions", "result": 786, "unit": "ng/mL"}, {"measurement": "Cmax", "setting": "both sexes, 100 mg, healthy subjects, 100 mg oral capsule, fed conditions (high-fat/high-calorie meal)", "result": 445, "unit": "ng/mL"}, {"measurement": "Tmax", "setting": "both sexes, 100 mg, healthy subjects, 100 mg oral capsule, fed conditions (high-fat/high-calorie meal), read-out: median Tmax", "result": 2.5, "unit": "h"}, {"measurement": "AUC(0-t) geometric mean ratio", "setting": "[1]", "result": 108.57, "unit": "%"}, {"measurement": "AUC(Inf) geometric mean ratio", "setting": "[1]", "result": 106.54, "unit": "%"}, {"measurement": "Cmax geometric mean ratio", "setting": "fed vs fasted, 100 mg oral, 90% confidence interval 49.72% to 62.67%", "result": 55.82, "unit": "%"}, {"measurement": "Tmax", "setting": "after fasted oral administration, illustrative prescribing information language, read-out: peak concentration (Tmax)", "result": "0.5 to 3", "unit": "h"}, {"measurement": "extent of absorption", "setting": "[2]", "result": "no significant change"}, {"measurement": "rate of absorption", "setting": "[2]", "result": "significant decrease"}]}
